Patent publication US12616201B2, “Herbicidal compositions comprising isoxaflutole” (BASF SE, priority 2024, dated 2026)

How the values were obtained:
Datura stramonium = assay: Post-emergence application in field trials, DATST; type: in vivo; details: 100 g ai/ha
Method: (§1) In the examples below, using the method of S. R. Colby (1967) “Calculating synergistic and antagonistic responses of herbicide combinations”, Weeds 15, p. 22ff., the value E, which is expected if the activity of the individual active compounds is only additive, was calculated:
(§2) [formula] • where • X=percent activity using active herbicide A at an application rate a; • Y=percent activity using active herbicide B (i.e. isoxaflutole) at an application rate b; • E=expected activity (in %) by A+B at application rates a+b.
(§3) If the value found experimentally is higher than the value E calculated according to Colby, a synergistic effect is present.
(§4) On field test sites, natural weed infestation or seeded weeds were treated post-emergence of the weeds.
(§5) In the field trials, the weeds were treated as indicated below.
(§6) In the following experiments, the herbicidal activity for the individual herbicidal compositions (solo and mixture applications) was assessed at the indicated days after treatment (DAT). The assessments for the damage on undesired weeds caused by the composition was carried out using a scale from 0 to 100%, compared to the untreated control plants. Here, 0 means no damage and 100 means complete destruction of the plants.
(§7) Herbicide A-1 and isoxaflutole (240 g/l SC) were, together with addition of 0.25 v/v % MSO (methylated sed oil) as adjuvant, formulated in water as distribution medium (water volume 200 l/ha) and sprayed with commercial flat fan nozzles.
(§8) Herbicide A-1, isoxaflutole (240 g/l SC) and saflufenacil (342 g/l) were, together with addition of 0.25 v/v % MSO (methylated sed oil) as adjuvant, formulated in water as distribution medium (water volume 200 l/ha) and sprayed with commercial flat fan nozzles.

Amaranthus hybridus = assay: Post-emergence application in field trials, AMACH; type: in vivo; details: Table 1.1; AMACH growth stage 35; 21 DAT; 100 g ai/ha
Method: as §1, §2, §3, §4, §5
as §6, with “the plants. […]” for “the plants.”

Echinochloa crus-galli = assay: Post-emergence application in field trials, ECHCG; type: in vivo
Method: as §1, §2, §3, §4, §5, §6, §7
(§9) Herbicide A-1 and isoxaflutole (240 g/l SC, Balance Flexx®) were, together with addition of 0.25 v/v % MSO (methylated sed oil) as adjuvant, formulated in water as distribution medium (water volume 200 l/ha) and sprayed with commercial flat fan nozzles.
as §8
(§10) Herbicide A-1, isoxaflutole (240 g/l SC), saflufenacil (342 g/l) and pyroxasulfone were, together with addition of 0.25 v/v % MSO (methylated sed oil) as adjuvant, formulated in water as distribution medium (water volume 200 l/ha) and sprayed with commercial flat fan nozzles.

Hordeum vulgare = assay: Post-emergence application in field trials, HORVX; type: in vivo; details: HORVX growth stage 23-29
Method: as §1, §2, §3, §4, §5, §6, §9

Euphorbia heterophylla = assay: Post-emergence application in field trials, EPHHL; type: in vivo; details: Table 1.1; EPHHL growth stage 35; 21 DAT; 100 g ai/ha
Method: as §1, §2, §3, §4, §5
as §6, with “the plants. […]” for “the plants.”

Setaria verticillata = assay: Post-emergence application in field trials, SETVE; type: in vivo; details: SETVE growth stage 21-23
Method: as §1, §2, §3, §4, §5, §6, §7, §9

Ipomoea triloba = assay: Post-emergence application in field trials, IPOTR; type: in vivo; details: Table 1.1; IPOTR growth stage 35; 21 DAT; 100 g ai/ha
Method: as §1, §2, §3, §4, §5
as §6, with “the plants. […]” for “the plants.”

Spermacoce latifolia = assay: Post-emergence application in field trials, BOILF; type: in vivo; details: Table 1.1; BOILF growth stage 40; 21 DAT; 100 g ai/ha
Method: as §1, §2, §3, §4, §5, §6
Herbicide A-1 and isoxaflutole (75% WG) were, together with addition of 0.5 v/v % MSO (methylated sed oil) as adjuvant, formulated in water as distribution medium (water volume 200 l/ha) and sprayed with commercial flat fan nozzles.

HORVW = assay: Post-emergence application in field trials, HORVW; type: in vivo, Hordeum vulgare; details: HORVW height 20-25 cm, 100 g ai/ha
Method: as §1, §2, §3, §4, §5, §6, §10

Amaranthus retroflexus = assay: Post-emergence application in field trials, AMARE; type: in vivo
Method: as §1, §2, §3, §4, §5, §6, §9, §10

Glycine max = assay: Post-emergence application in field trials, GLXMA; type: in vivo; details: GLXMA growth stage 13, 100 g ai/ha
Method: as §1, §2, §3, §4, §5, §6, §7

Lolium multiflorum = assay: Post-emergence application in field trials, LOLMU; type: in vivo; details: LOLMU height 20-25 cm, 100 g ai/ha
Method: as §1, §2, §3, §4, §5, §6, §10

Abuthilon theophrasti = assay: Post-emergence application in field trials, ABUTH; type: in vivo; details: ABUTH growth stage 14-16
Method: as §1, §2, §3, §4, §5, §6, §9

Zea mays = assay: Post-emergence application in field trials, ZEAMX; type: in vivo
Method: as §1, §2, §3, §4, §5, §6, §7, §9, §8, §10

## CS(=O)(=O)c1cc(C(F)(F)F)ccc1C(=O)c1cnoc1C1CC1 [B, isoxaflutole]
Datura stramonium; Table 2.1, DATST growth stage 14-16, 7 DAT
  % herbicidal activity: 25%
Datura stramonium; Table 2.3, DATST growth stage 14-16, 21 DAT
  % herbicidal activity: 50%
Datura stramonium; Table 4.2, DATST growth stage 14-16, height 5-10 cm, 42 DAT
  % herbicidal activity: 50%
Amaranthus hybridus
  % herbicidal activity: 30%
Echinochloa crus-galli; Table 2.1, ECHCG growth stage 23-30, 7 DAT, 100 g ai/ha
  % herbicidal activity: 40%
Echinochloa crus-galli; Table 3.1, ECHCG growth stage 23-30, 7 DAT, 80 g ai/ha
  % herbicidal activity: 70%
Echinochloa crus-galli; Table 3.2, ECHCG growth stage 23-30, 21 DAT, 56 g ai/ha
  % herbicidal activity: 80%
Echinochloa crus-galli; Table 3.2, ECHCG growth stage 23-30, 21 DAT, 80 g ai/ha
  % herbicidal activity: 80%
Echinochloa crus-galli; Table 4.1, ECHCG growth stage 23-30, height 15-20 cm, 7 DAT, 100 g ai/ha
  % herbicidal activity: 40%
Echinochloa crus-galli; Table 5.4, ECHCG height 15-20 cm, 7 DAT, 100 g ai/ha
  % herbicidal activity: 40%
Hordeum vulgare; Table 3.1, 7 DAT, 56 g ai/ha
  % herbicidal activity: 10%
Hordeum vulgare; Table 3.1, 7 DAT, 80 g ai/ha
  % herbicidal activity: 10%
Hordeum vulgare; Table 3.2, 21 DAT, 56 g ai/ha
  % herbicidal activity: 10%
Hordeum vulgare; Table 3.2, 21 DAT, 80 g ai/ha
  % herbicidal activity: 10%
Euphorbia heterophylla
  % herbicidal activity: 22%
Setaria verticillata; Table 2.1, 7 DAT, 100 g ai/ha
  % herbicidal activity: 20%
Setaria verticillata; Table 3.4, 42 DAT, 56 g ai/ha
  % herbicidal activity: 20%
Ipomoea triloba
  % herbicidal activity: 19%
Spermacoce latifolia
  % herbicidal activity: 27%
HORVW; Table 5.5, 21 DAT
  % herbicidal activity: 10%
HORVW; Table 5.6, 28 DAT
  % herbicidal activity: 10%
HORVW; Table 5.8, 21 DAT
  % herbicidal activity: 10%
Amaranthus retroflexus; Table 3.4, AMARE growth stage 31-49, 42 DAT, 80 g ai/ha
  % herbicidal activity: 45%
Amaranthus retroflexus; Table 5.4, AMARE height 8-20 cm, 7 DAT, 100 g ai/ha
  % herbicidal activity: 30%
Glycine max; Table 2.1, 7 DAT
  % herbicidal activity: 25%
Glycine max; Table 2.2, 21 DAT
  % herbicidal activity: 35%
Glycine max; Table 2.3, 21 DAT
  % herbicidal activity: 40%
Lolium multiflorum; Table 5.4, 7 DAT
  % herbicidal activity: 20%
Lolium multiflorum; Table 5.8, 21 DAT
  % herbicidal activity: 20%
Abuthilon theophrasti; Table 3.1, 7 DAT, 56 g ai/ha
  % herbicidal activity: 40%
Abuthilon theophrasti; Table 3.2, 21 DAT, 56 g ai/ha
  % herbicidal activity: 45%
Abuthilon theophrasti; Table 3.2, 21 DAT, 80 g ai/ha
  % herbicidal activity: 65%
Abuthilon theophrasti; Table 3.4, 42 DAT, 56 g ai/ha
  % herbicidal activity: 45%
Abuthilon theophrasti; Table 3.4, 42 DAT, 80 g ai/ha
  % herbicidal activity: 60%
Zea mays; Table 2.1, ZEAMX growth stage 15-16, 7 DAT, 100 g ai/ha
  % herbicidal activity: 10%
Zea mays; Table 3.2, ZEAMX growth stage 15-16, 21 DAT, 56 g ai/ha
  % herbicidal activity: 0%
Zea mays; Table 3.2, ZEAMX growth stage 15-16, 21 DAT, 80 g ai/ha
  % herbicidal activity: 0%
Zea mays; Table 3.3, ZEAMX growth stage 15-16, 28 DAT, 56 g ai/ha
  % herbicidal activity: 0%
Zea mays; Table 4.1, ZEAMX growth stage 15-16, height 25-30 cm, 7 DAT, 100 g ai/ha
  % herbicidal activity: 10%
Zea mays; Table 5.12, 7 DAT, height 25-30 cm, B 100 g ai/ha
  % herbicidal activity: 10%
Zea mays; Table 5.4, ZEAMX height 25-30 cm, 7 DAT, 100 g ai/ha
  % herbicidal activity: 10%
Zea mays; Table 5.5, ZEAMX height 25-30 cm, 21 DAT, 100 g ai/ha
  % herbicidal activity: 7%
Zea mays; Table 5.6, ZEAMX height 25-30 cm, 28 DAT, 100 g ai/ha
  % herbicidal activity: 0%
Zea mays; Table 5.7, ZEAMX height 25-30 cm, 7 DAT, 100 g ai/ha
  % herbicidal activity: 10%
Zea mays; Table 5.8, ZEAMX height 25-30 cm, 21 DAT, 100 g ai/ha
  % herbicidal activity: 7%
Zea mays; Table 5.9, ZEAMX height 25-30 cm, 28 DAT, 100 g ai/ha
  % herbicidal activity: 0%
